Measurements from ChEMBL document CHEMBL5241112, “Insights into the recent progress in the medicinal chemistry of pyranopyrimidine analogs” (RSC Med Chem, 2022).
≈ marks a conversion by molar mass, not a printed value.

What was measured:
[1] = Antioxidant activity assessed as DPPH radical scavenging activity; type: functional
[2] = Antioxidant activity assessed as H2O2 radical scavenging activity; type: functional
Proteus mirabilis = assay: Antibacterial activity against Proteus mirabilis NTCC-289 assessed as diameter of inhibition zone incubated for 24 hrs by disc diffusion method; type: functional
Serratia marcescens = assay: Antibacterial activity against Serratia marcescens IMRU-70 assessed as diameter of inhibition zone incubated for 24 hrs by disc diffusion method; type: functional
Aspergillus ochraceus = assay: Antifungal activity against Aspergillus ochraceus AUCC-230 assessed as diameter of inhibition zone incubated for 24 hrs by disc diffusion method; type: functional
Staphylococcus aureus [3] = assay: Antibacterial activity against Staphylococcus aureus NCTC-7447 assessed as diameter of inhibition zone incubated for 24 hrs by disc diffusion method; type: functional
Bacillus cereus = assay: Antibacterial activity against Bacillus cereus ATCC-14579 assessed as diameter of inhibition zone incubated for 24 hrs by disc diffusion method; type: functional
Penicillium chrysogenum = assay: Antifungal activity against Penicillium chrysogenum AUCC-530 assessed as diameter of inhibition zone incubated for 24 hrs by disc diffusion method; type: functional
Staphylococcus aureus [4] = assay: Antibacterial activity against Staphylococcus aureus assessed as diameter of inhibition zone; type: functional
Salmonella typhimurium [5] = assay: Antibacterial activity against Salmonella typhimurium assessed as diameter of inhibition zone; type: functional, Salmonella enterica subsp. enterica serovar Typhimurium
Escherichia coli [6] = assay: Antibacterial activity against Escherichia coli assessed as diameter of inhibition zone; type: functional
Bacillus subtilis [7] = assay: Antibacterial activity against Bacillus subtilis assessed as diameter of inhibition zone; type: functional
Salmonella typhimurium [8] = assay: Antibacterial activity against Salmonella typhimurium MTCC 98 assessed as bacterial growth inhibition by broth microdilution method; type: functional, Salmonella enterica subsp. enterica serovar Typhimurium; settings: Salmonella enterica
HepG2 [9] = assay: Anticancer activity against human HepG2 cells assessed as reduction in cell viability incubated for 48 hrs by MTT assay; type: functional, cell-based; settings: HepG2, 48 h
MCF7 [10] = assay: Anticancer activity against human MCF7 cells assessed as reduction in cell viability incubated for 24 hrs by MTT colorimetric assay; type: functional, cell-based; settings: MCF7, 24 h
HCT-116 = assay: Anticancer activity against human HCT-116 cells assessed as reduction in cell viability incubated for 24 hrs by MTT colorimetric assay; type: functional, cell-based; settings: HCT-116, 24 h
HepG2 [11] = assay: Anticancer activity against human HepG2 cells assessed as reduction in cell viability incubated for 24 hrs by MTT colorimetric assay; type: functional, cell-based; settings: HepG2, 24 h
[12] = Antioxidant activity assessed as NO radical scavenging activity; type: functional
MCF7 [13] = assay: cells; settings: Homo sapiens, MCF7, 48 h
Klebsiella pneumoniae = assay: Antibacterial activity against Klebsiella pneumoniae assessed as diameter of inhibition zone at 100 ug/ml by disc diffusion method; type: functional; settings: read-out: DIZ
Escherichia coli [14] = assay: Antibacterial activity against Escherichia coli assessed as diameter of inhibition zone at 100 ug/ml by disc diffusion method; type: functional; settings: read-out: DIZ
Bacillus subtilis [15] = assay: Antibacterial activity against Bacillus subtilis assessed as diameter of inhibition zone at 100 ug/ml by disc diffusion method; type: functional; settings: read-out: DIZ
[16] = Antiproliferative activity against human […] cells assessed as reduction in cell proliferation; type: functional, cell-based
HepG2 [17] = assay: Antiproliferative activity against human HepG2 cells assessed as reduction in cell proliferation; type: functional, cell-based
MCF7 [18] = assay: Antiproliferative activity against human MCF7 cells assessed as reduction in cell proliferation; type: functional, cell-based
[19] = test system: Mycobacterium tuberculosis; assay: Antitubercular activity against Mycobacterium tuberculosis H37Rv assessed as bacterial growth inhibition at 100 ug/ml; type: functional
Clostridium tetani = assay: Antibacterial activity against Clostridium tetani MTCC 449 assessed as bacterial growth inhibition by broth microdilution method; type: functional
Plasmodium falciparum = assay: microbe, parasite or virus in culture
Aspergillus fumigatus = assay: Antifungal activity against Aspergillus fumigatus MTCC 227 assessed as fungal growth inhibition by broth microdilution method; type: functional
[20] = test system: Mycobacterium tuberculosis; assay: Antitubercular activity against Mycobacterium tuberculosis H37Rv assessed as bacterial growth inhibition at 250 ug/ml; type: functional

## Nc1ncnc2c1C(c1ccc3c(c1)OCO3)c1ccc(O)cc1O2 (stereo not given)
[1]
  IC50: 39.46 µg/mL (≈ 118 µM)
[2]
  IC50: 53.54 µg/mL (≈ 160 µM)

## N#CCc1nc2c3c(ncn2n1)Oc1c(c(=O)oc2ccccc12)C3c1ccc(Cl)cc1 (stereo not given)
Proteus mirabilis
  diameter of the inhibition zone (DIZ): 21 mm
Serratia marcescens
  diameter of the inhibition zone (DIZ): 21 mm
Aspergillus ochraceus
  diameter of the inhibition zone (DIZ): 15 mm
Staphylococcus aureus [3]
  diameter of the inhibition zone (DIZ): 18 mm
Bacillus cereus
  diameter of the inhibition zone (DIZ): 19 mm
Penicillium chrysogenum
  diameter of the inhibition zone (DIZ): 13 mm

## CCn1cc(C(=O)O)c(=O)c2cc(F)c(N3CCNCC3)cc21 [NORFLOXACIN]
Staphylococcus aureus [4]
  diameter of the inhibition zone (DIZ): 14 mm
Salmonella typhimurium [5]
  diameter of the inhibition zone (DIZ): 16 mm
Escherichia coli [6]
  diameter of the inhibition zone (DIZ): 20 mm
Bacillus subtilis [7]
  diameter of the inhibition zone (DIZ): 24 mm
Salmonella typhimurium [8]
  MIC: 10 µg/mL (≈ 31.3 µM)

## O=C1CC(c2ccc(O)cc2)c2c([nH]c(=O)[nH]c2=O)O1 (stereo not given)
HepG2 [9]
  IC50: 8.2 µM

## N#CC1=C(N)Oc2[nH]nc(-c3ccccc3)c2C1c1coc2ccccc2c1=O (stereo not given)
MCF7 [10]
  IC50: 69.8 µg/mL
HCT-116
  IC50: 54.1 µg/mL
HepG2 [11]
  IC50: 57.3 µg/mL

## COc1ccc(C2CC(=O)Oc3[nH]c(=O)[nH]c(=O)c32)cc1OC (stereo not given)
HepG2 [9]
  IC50: 8.9 µM

## Nc1ncnc2c1C(c1ccc([N+](=O)[O-])cc1)c1ccc(O)cc1O2 (stereo not given)
[1]
  IC50: 34.34 µg/mL (≈ 102 µM)
[2]
  IC50: 53.54 µg/mL (≈ 159 µM)
[12]
  IC50: 50.32 µg/mL (≈ 150 µM)

## CCOC(=O)c1nc2c3c(ncn2n1)Oc1c(c(=O)oc2ccccc12)C3c1ccc(Cl)cc1 (stereo not given)
Proteus mirabilis
  diameter of the inhibition zone (DIZ): 21 mm
Serratia marcescens
  diameter of the inhibition zone (DIZ): 21 mm
Aspergillus ochraceus
  diameter of the inhibition zone (DIZ): 15 mm
Staphylococcus aureus [3]
  diameter of the inhibition zone (DIZ): 18 mm
Bacillus cereus
  diameter of the inhibition zone (DIZ): 19 mm
Penicillium chrysogenum
  diameter of the inhibition zone (DIZ): 13 mm

## COc1cc(C2CC(=O)Oc3[nH]c(=O)[nH]c(=O)c32)ccc1O (stereo not given)
MCF7 [13]
  IC50: 8.9 µM
HepG2 [9]
  IC50: 10.6 µM

## Nc1ncnc2c1C(c1ccc(Cl)cc1)c1ccc(O)cc1O2 (stereo not given)
[1]
  IC50: 36.82 µg/mL (≈ 113 µM)
[2]
  IC50: 53.54 µg/mL (≈ 164 µM)
[12]
  IC50: 50.32 µg/mL (≈ 154 µM)

## CCOC(=O)C1=C(C)Oc2nc(C)n(Cc3cn(-c4cccc(C(F)(F)F)c4)nn3)c(=O)c2C1c1ccc([N+](=O)[O-])cc1 (stereo not given)
Klebsiella pneumoniae
  zone of inhibition at 100 µg/mL: 15.5 mm
Escherichia coli [14]
  zone of inhibition at 100 µg/mL: 14 mm
Bacillus subtilis [15]
  zone of inhibition at 100 µg/mL: 12 mm

## NNc1ncnc2c1C(c1cn(-c3ccccc3)nc1-c1ccccc1)c1c(ccc3ccccc13)O2 (stereo not given)
[16]
  IC50: 4.9 µM
HepG2 [17]
  IC50: 9.26 µM
MCF7 [18]
  IC50: 9.89 µM

## Nc1ncnc2c1C(c1ccccc1O)c1ccc(O)cc1O2 (stereo not given)
[1]
  IC50: 36.82 µg/mL (≈ 120 µM)
[2]
  IC50: 53.54 µg/mL (≈ 174 µM)
[12]
  IC50: 50.32 µg/mL (≈ 164 µM)

## N#CC(C#N)=C1c2c(-c3ccccc3)n[nH]c2Oc2[nH]c(=S)nc(-c3ccccc3O)c21
MCF7 [10]
  IC50: 22.6 µM
HCT-116
  IC50: 22.6 µM
HepG2 [11]
  IC50: 22.6 µM

## CCOC(=O)C1=C(N)Oc2[nH]c(=S)[nH]c(=O)c2C1c1c(C)nn(-c2ccccc2)c1-n1ccnc1 (stereo not given)
[19]
  inhibition at 100 µg/mL: 30%
Clostridium tetani
  MIC: 100 µg/mL (≈ 203 µM)
Plasmodium falciparum
  IC50: 0.97 µg/mL (≈ 1.97 µM)
Aspergillus fumigatus
  MIC: 200 µg/mL (≈ 407 µM)
[20]
  inhibition at 250 µg/mL: 37%

## COc1ccc(C2CC(=O)Oc3[nH]c(=O)[nH]c(=O)c32)cc1 (stereo not given)
HepG2 [9]
  IC50: 10.6 µM
